We go through 2 molecules from US20060089391A1, “Treatment of cancer in pediatric patients” (priority 2004, published 2006).

Data set [1] can be described thus: Pharmacokinetic profiles of pediatric patients after oral dosing. The format is in vivo, human. The conditions noted are these: for area under the plasma concentration time curve / time of maximum plasma concentration: immediate release composition.
The next data set relates to neuroblastoma. Description: Clinical response in pediatric patients with neuroblastoma. The format is in vivo, human. The text has this:
Patients (n=19) with neuroblastoma have experienced time-to-disease progresson with a median progression free survival (FPS) of 20 weeks.

Data set [2] addresses biotinylated bovine brain tubulin. The settings on record: competition of [3H]colchicine.
The mark [3] stands for this setting: one 75 mg per mm^2 per day oral dose for 21 days.
[4] abbreviates: one 100 mg per mm^2 per day oral dose for 21 days.
Setting [5] is: one 130 mg per mm^2 per day oral dose for 21 days.
Setting [6] is: one 165 mg per mm^2 per day oral dose for 21 days.
Setting [7] is: one 200 mg per mm^2 per day oral dose for 21 days.
[8] abbreviates: one 250 mg per mm^2 per day oral dose for 21 days.

SMILES strings stand for the structures. Like-named read-outs stand apart in the source and are kept apart here.

Broadly, the Tmax is the time from dosing to the highest level. As usually defined, the Cmax is the highest concentration seen after dosing. Broadly, the Ki is the equilibrium dissociation constant of an inhibitor or competing ligand from its target. Read a high Ki as lower affinity.

`COc1ccc(S(=O)(=O)Nc2cccnc2Nc2ccc(O)cc2)cc1` [ABT-751, N-(2-((4-hydroxyphenyl)amino)pyrid-3-yl)-4-methoxybenzenesulfonamide]: the Tmax in data set [1] (250 mg/mm^2/d QD oral) is 2.0 h; in data set [1] (human, in vivo, 200 QD oral, mean±SD, read-out: Tmax), 3 ± 1.7 h; in data set [1] (human, plasma, 75 QD oral, mean±SD, read-out: Tmax), 2.7 ± 0.6 h; in data set [1] (human, plasma, 100 QD oral, mean±SD, read-out: Tmax) it was 1.9 ± 1 h; in data set [1] (human, plasma, 130 QD oral, mean±SD, read-out: Tmax) it was 2.2 ± 0.8 h; in data set [1] (human, plasma, 165 QD oral, mean±SD, read-out: Tmax) it was 3 ± 1.7 h. For the same molecule, the Cmax in data set [1] (human, plasma, 75 QD oral, mean±SD) amounted to 8000 ± 1700 ng/mL; in data set [1] (human, plasma, 100 QD oral, mean±SD) it was 10600 ± 3000 ng/mL; in data set [1] (human, plasma, 130 QD oral, mean±SD), 10800 ± 2900 ng/mL; in data set [1] (human, plasma, 165 QD oral, mean±SD), 13500 ± 4600 ng/mL; in data set [1] (human, plasma, 200 QD oral, mean±SD), 16900 ± 8100 ng/mL; in data set [1] (human, plasma, 250 QD oral, mean±SD), 23300 ± 6500 ng/mL. Moreover, the “area under the plasma concentration time curve” value was determined as 52000 ± 21000 ng·h/mL in data set [1] (setting [3]); 60000 ± 19000 ng·h/mL in data set [1] (setting [4]); 62000 ± 19000 ng·h/mL in data set [1] (setting [5]); 90000 ± 27000 ng·h/mL in data set [1] (setting [6]); 91000 ± 24000 ng·h/mL in data set [1] (setting [7]); 129000 ± 23000 ng·h/mL in data set [1] (setting [8]). For the same molecule, the time of maximum plasma concentration in data set [1] (setting [3]) was found to be 2.7 ± 0.6 h; in data set [1] (setting [4]), 1.9 ± 1 h; in data set [1] (setting [5]), 2.2 ± 0.8 h; in data set [1] (setting [6]) it was 3 ± 1.7 h; in data set [1] (setting [7]) it was 3 ± 1.7 h; in data set [1] (setting [8]), 2 h. In the data set with neuroblastoma (patient with neuroblastoma, 100 mg/mm^2/d on the daily x7 schedule), the “clinical outcome of a single patient” value was “disease stabilization after 44 cycles”. For the same molecule, the “median progression free survival (FPS)” value in the data set on neuroblastoma (patients (n=19) with neuroblastoma) is listed as 20 weeks. The molecule further yielded a Ki in data set [2] of 2.6 µM.

`CC[C@]1(O)C[C@@H]2CN(CCc3c([nH]c4ccccc34)[C@@](C(=O)OC)(c3cc4c(cc3OC)N(C)[C@H]3[C@@](O)(C(=O)OC)[C@H](OC(C)=O)[C@]5(CC)C=CCN6CC[C@]43[C@@H]65)C2)C1` [vinblastine]: the Ki in data set [2] was greater than 100 µM.
